Assay results from ChEMBL document CHEMBL1132460, “Affinity and selectivity of matrix metalloproteinase inhibitors: a chemometrical study from the perspective of ligands and proteins” (J Med Chem, 1999).

How the values were obtained:
Stromelysin-1 = Stromelysin-1 (Homo sapiens, UniProt P08254); assay: Inhibitory concentration against human matrix metalloprotease-3 (MMP-3)
[1] = Affinity ratio of IC50 of MMP-3 to IC50 of MMP-8
Neutrophil collagenase = Neutrophil collagenase (Homo sapiens, UniProt P22894); assay: Inhibitory concentration against human matrix metalloprotease-8 (human neutrophil collagenase, MMP-8)
Sequence of Neutrophil collagenase (P22894 whole entry): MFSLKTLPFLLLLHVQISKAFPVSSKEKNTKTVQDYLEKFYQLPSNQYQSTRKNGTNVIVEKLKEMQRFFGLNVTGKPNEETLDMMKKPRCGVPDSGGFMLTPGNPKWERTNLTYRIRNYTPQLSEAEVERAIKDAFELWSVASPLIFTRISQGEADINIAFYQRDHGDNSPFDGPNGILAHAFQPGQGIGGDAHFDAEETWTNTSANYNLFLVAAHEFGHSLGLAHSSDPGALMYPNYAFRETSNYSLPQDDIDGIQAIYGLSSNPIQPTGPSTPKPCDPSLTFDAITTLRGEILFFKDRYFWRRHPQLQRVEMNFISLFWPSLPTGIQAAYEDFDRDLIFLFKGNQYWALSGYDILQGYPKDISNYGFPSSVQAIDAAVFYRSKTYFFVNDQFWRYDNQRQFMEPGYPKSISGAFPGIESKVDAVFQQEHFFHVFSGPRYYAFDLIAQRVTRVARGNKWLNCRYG

Sequence of Stromelysin-1 (P08254 whole entry): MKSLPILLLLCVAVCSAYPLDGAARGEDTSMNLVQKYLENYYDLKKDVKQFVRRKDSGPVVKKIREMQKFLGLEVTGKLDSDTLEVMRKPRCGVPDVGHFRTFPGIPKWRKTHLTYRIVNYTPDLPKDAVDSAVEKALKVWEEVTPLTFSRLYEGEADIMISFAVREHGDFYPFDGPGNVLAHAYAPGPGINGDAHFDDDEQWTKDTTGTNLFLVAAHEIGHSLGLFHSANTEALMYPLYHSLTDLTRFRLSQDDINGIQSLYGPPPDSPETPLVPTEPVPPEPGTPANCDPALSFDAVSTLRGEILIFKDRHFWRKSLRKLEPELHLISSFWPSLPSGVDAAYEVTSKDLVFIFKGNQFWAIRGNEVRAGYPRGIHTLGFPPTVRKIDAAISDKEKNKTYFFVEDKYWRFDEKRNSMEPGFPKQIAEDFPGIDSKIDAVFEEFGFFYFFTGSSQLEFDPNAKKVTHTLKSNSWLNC

Row | SMILES | IC50 (Stromelysin-1; read-out: IC50) | log10(IC50 MMP-3/IC50 MMP-8) [1] | IC50 (Neutrophil collagenase) | IC50 (Stromelysin-1)
1 | CNC(=O)c1ccc(Oc2ccc(S(=O)(=O)N3Cc4ccccc4CC3C(=O)O)cc2)cc1 (stereo not drawn) | 0.3 µM | – | 0.04 µM | –
2 | COc1ccc(S(=O)(=O)N2Cc3cc([N+](=O)[O-])ccc3CC2C(=O)NO)cc1 (stereo not drawn) | – | 1 | – | –
3 | COc1ccc(S(=O)(=O)N2Cc3[nH]cnc3C[C@@H]2C(=O)NO)cc1 | – | 0.7 | – | –
4 | COc1ccc(S(=O)(=O)N2Cc3ncn(C)c3C[C@@H]2C(=O)NO)cc1 | 0.02 µM | 0.82 | – | –
5 | N#Cc1ccc(Oc2ccc(S(=O)(=O)N3Cc4ccccc4CC3C(=O)O)cc2)cc1 (stereo not drawn) | 1 µM | – | 0.01 µM | –
6 | O=C(Nc1cccc(S(=O)(=O)N2Cc3ccccc3CC2C(=O)NO)c1)c1ccccc1O (stereo not drawn) | – | – | 0.2 µM | 10000 nM l-1
7 | COc1ccc(S(=O)(=O)N2Cc3[nH]c4ccccc4c3C[C@@H]2C(=O)NO)cc1 | – | 0.82 | – | –
8 | COc1ccc(S(=O)(=O)N2Cc3cc(NC(=O)[C@H](C)N)ccc3CC2C(=O)NO)cc1 (stereo partly drawn) | 0.03 µM | – | – | –
9 | COc1ccc(S(=O)(=O)N2Cc3ccccc3C[C@H]2C(=O)NO)cc1 | 7 µM | 0.85 | – | –
10 | CCOC(=O)Nc1ccc(S(=O)(=O)N2Cc3ccccc3CC2C(=O)NO)cc1 (stereo not drawn) | – | 1.22 | – | –
11 | O=C(Nc1ccc(S(=O)(=O)N2Cc3ccccc3CC2C(=O)NO)cc1)OCc1ccccc1 (stereo not drawn) | 0.4 µM | – | 0.8 µM | –
12 | O=C(NO)[C@H]1Cc2c([nH]c3ccccc23)CN1S(=O)(=O)c1ccc(N2CCOCC2)cc1 | – | 0.63 | – | –
13 | O=C(O)C1Cc2ccccc2CN1S(=O)(=O)c1ccc(-c2ccc(C(F)(F)F)cc2)cc1 (stereo not drawn) | 0.3 µM | – | 0.01 µM | –
14 | O=C(NO)C1Cc2ccccc2CN1S(=O)(=O)Cc1ccccc1 (stereo not drawn) | – | – | 3 µM | 10000 nM l-1
15 | COc1ccc(S(=O)(=O)N2Cc3ccccc3C[C@@H]2C(=O)NO)cc1 | 0.02 µM | 0.7 | – | –
16 | COc1ccc(S(=O)(=O)N2Cc3cc(N)ccc3CC2C(=O)NO)cc1 (stereo not drawn) | 0.01 µM | – | – | –
17 | O=C(O)[C@H]1Cc2c([nH]c3ccccc23)CN1S(=O)(=O)c1ccc(Oc2ccccc2)cc1 | – | 1.3 | – | –
18 | O=C(O)C1Cc2ccc(O)cc2CN1S(=O)(=O)c1ccc(-c2ccc(Cl)cc2)cc1 (stereo not drawn) | 0.2 µM | – | 0.02 µM | –
19 | CC(=O)Nc1ccc(S(=O)(=O)N2Cc3ccccc3CC2C(=O)NO)cc1 (stereo not drawn) | – | 0.85 | – | –

Continued, values first:

Row | IC50 (Stromelysin-1; read-out: IC50) | log10(IC50 MMP-3/IC50 MMP-8) [1] | IC50 (Neutrophil collagenase) | IC50 (Stromelysin-1) | SMILES
20 | 2 µM | 2 | 0.02 µM | – | CSc1nccc(-c2ccc(S(=O)(=O)N3Cc4ccccc4CC3C(=O)NO)s2)n1 (stereo not drawn)
21 | 2 µM | – | 0.6 µM | – | O=C(O)C1Cc2ccccc2CN1S(=O)(=O)c1ccc(-c2ccon2)s1 (stereo not drawn)
22 | 0.7 µM | – | 0.06 µM | – | O=C(O)C1Cc2ccccc2CN1S(=O)(=O)c1ccc(/C=C/c2ccccc2)cc1 (stereo not drawn)
23 | 0.8 µM | – | 0.08 µM | – | O=C(O)C1Cc2ccccc2CN1S(=O)(=O)c1ccc(-c2nc3ccccc3o2)cc1 (stereo not drawn)
24 | 0.5 µM | – | 0.02 µM | – | O=C(O)C1Cc2ccccc2CN1S(=O)(=O)c1ccc(Oc2ccc(Cl)cc2)cc1 (stereo not drawn)
25 | – | 1 | 0.002 µM | – | O=C(NO)C1Cc2ccccc2CN1S(=O)(=O)c1ccc(-c2ccccc2)cc1 (stereo not drawn)
26 | 0.2 µM | – | 0.009 µM | – | O=C(O)C1Cc2ccccc2CN1S(=O)(=O)c1ccc(Oc2ccccc2)cc1 (stereo not drawn)
27 | – | – | 1 µM | 10000 nM l-1 | CSc1nccc(-c2ccc(S(=O)(=O)N3Cc4ccccc4CC3C(=O)O)s2)n1 (stereo not drawn)
28 | 0.6 µM | – | 0.09 µM | – | O=C(O)C1Cc2ccccc2CN1S(=O)(=O)c1ccc(-n2nccn2)cc1 (stereo not drawn)
29 | 3 µM | – | 0.3 µM | – | O=C(c1ccccc1)c1ccc(S(=O)(=O)N2Cc3ccccc3CC2C(=O)O)cc1 (stereo not drawn)
30 | 2 µM | – | 0.09 µM | – | O=C(O)C1Cc2ccccc2CN1S(=O)(=O)c1ccc(-c2ccccn2)s1 (stereo not drawn)
31 | 2 µM | – | 0.2 µM | – | O=C(O)C1Cc2ccccc2CN1S(=O)(=O)c1ccc(Sc2ccccc2)cc1 (stereo not drawn)
32 | 0.05 µM | – | 0.02 µM | – | O=C(O)C1Cc2ccccc2CN1S(=O)(=O)CCc1ccc(-c2ccccc2)cc1 (stereo not drawn)
33 | 5 µM | – | 0.6 µM | – | O=C(O)C1Cc2ccccc2CN1S(=O)(=O)c1ccc(Br)cc1 (stereo not drawn)
